The assay addresses T1, human KCNK13 (Homo sapiens, UniProt Q9HB14).
T1 construct: expressed in transfected cells
T1 sequence (Q9HB14 1-408): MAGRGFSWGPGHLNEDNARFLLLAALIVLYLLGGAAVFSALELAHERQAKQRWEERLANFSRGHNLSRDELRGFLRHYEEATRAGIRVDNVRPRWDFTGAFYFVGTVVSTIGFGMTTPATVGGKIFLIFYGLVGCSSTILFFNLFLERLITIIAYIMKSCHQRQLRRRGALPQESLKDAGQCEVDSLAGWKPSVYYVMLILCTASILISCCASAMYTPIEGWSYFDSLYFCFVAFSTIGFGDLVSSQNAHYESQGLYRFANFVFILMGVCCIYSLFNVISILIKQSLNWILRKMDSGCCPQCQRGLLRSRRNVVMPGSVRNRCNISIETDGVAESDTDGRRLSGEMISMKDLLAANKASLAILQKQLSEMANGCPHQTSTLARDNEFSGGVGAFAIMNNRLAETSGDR
Nature of the assay: KCNK13 antagonist activity, thallium (Tl+) flux FLIPR assay. It is filed as cell-based. Put shortly:
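HEK 293 cells stably expressing human KCNK13 loaded with Tl+-sensitive dye for 1 h at room temperature. Compounds (10-point half-log curves) preincubated 15 min before thallium sulfate stimulus, fluorescence tracked by FLIPR. IC50 from ten-point curves, each point the mean of two wells.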

Where [1] appears, read: HEK 293 cells stably expressing human KCNK13, Tl+ sensitive dye, FLIPR, compounds 15 minutes prior to thallium sulfate, 10 point half log curves from 10 PM, read-out: hKCNK13 IC50.

Read-outs that look alike come from different tables or passages of the source.

Take `Cc1nonc1-c1nc2cccc(F)c2n1Cc1ccc(S(C)(=O)=O)nc1` (single isomer, unassigned) [Example 137, 3-(7-fluoro-1-((6-(methylsulfonyl)pyridin-3-yl)methyl)-benzimidazol-2-yl)-4-methyl-1,2,5-oxadiazole]: the IC50 (commonly the midpoint of a concentration-inhibition curve) under setting [1] was < 500 nM. Same read-out and setting: the same measure for `Nc1nonc1-c1nc2c(F)cccc2n1Cc1cccnn1` [Example 179, 4-(4-fluoro-1-(pyridazin-3-ylmethyl)-benzimidazol-2-yl)-1,2,5-oxadiazol-3-amine]: < 200 nM; for `Cc1cc(Cn2c(-c3nonc3C)nc3ccccc32)ccn1` [Example 74, 3-methyl-4-[1-[(2-methylpyridin-4-yl)methyl]benzimidazol-2-yl]-1,2,5-oxadiazole]: < 500 nM. Turning to `Cc1nsnc1-c1nc2ccccc2n1Cc1cccnc1` [Example 127, 3-methyl-4-[1-(pyridin-3-ylmethyl)benzimidazol-2-yl]-1,2,5-thiadiazole], under setting [1], the IC50 was < 100 nM. `Cc1nonc1-c1nc2cccc(F)c2n1Cc1ccc(Cl)nc1` [Example 38, 3-[1-[(6-chloropyridin-3-yl)methyl]-7-fluoro-benzimidazol-2-yl]-4-methyl-1,2,5-oxadiazole]: the IC50 under setting [1] was < 50 nM.

Regarding `Nc1nonc1-c1nc2c(F)cccc2n1Cc1ccncc1` (single isomer, unassigned) [Example 121, 4-[4-fluoro-1-(pyridin-4-ylmethyl)benzimidazol-2-yl]-1,2,5-oxadiazol-3-amine], the IC50 under setting [1] was < 100 nM. In the case of `Cc1nonc1-c1nc2c(F)ccc(F)c2n1Cc1cccnc1` [Example 65, 3-[4,7-difluoro-1-(pyridin-3-ylmethyl)benzimidazol-2-yl]-4-methyl-1,2,5-oxadiazole], the IC50 under setting [1] was < 50 nM. The same measure, in the same setting: the same measure for `Cc1nsnc1-c1nc2ccc(F)cc2n1Cc1ccc(C#N)nc1` [Example 80, 5-[[6-fluoro-2-(4-methyl-1,2,5-thiadiazol-3-yl)benzimidazol-1-yl]methyl]pyridine-2-carbonitrile]: < 1000 nM; for `Nc1nonc1-c1nc2c(F)cccc2n1Cc1ccc(C(F)F)nn1` (single isomer, unassigned) [Example 173, 4-(1-((6-(difluoromethyl)pyridazin-3-yl)methyl)-4-fluoro-benzimidazol-2-yl)-1,2,5-oxadiazol-3-amine]: < 500 nM. With `Nc1nonc1-c1nc2cc(F)ccc2n1Cc1cncnc1` (single isomer, unassigned) [Example 5, 4-[5-fluoro-1-(pyrimidin-5-ylmethyl)benzimidazol-2-yl]-1,2,5-oxadiazol-3-amine], under setting [1], the IC50 is < 100 nM.

On to `Cc1conc1-c1nc2ccccc2n1Cc1cccnc1` [Example 104, 4-methyl-3-[1-(pyridin-3-ylmethyl)benzimidazol-2-yl]isoxazole], for which the IC50 under setting [1] was < 200 nM. On the same count and under the same terms, the same measure for `CN(C)c1ccc2c(c1)nc(-c1nonc1N)n2Cc1cccnc1` [Example 34, 4-[5-(dimethylamino)-1-(pyridin-3-ylmethyl)benzimidazol-2-yl]-1,2,5-oxadiazol-3-amine]: < 1000 nM. Take `Nc1nonc1-c1nc2ccccc2n1Cc1ccccn1` [Example 115, 4-[1-(pyridin-2-ylmethyl)benzimidazol-2-yl]-1,2,5-oxadiazol-3-amine]: the IC50 under setting [1] was < 1000 nM.

For the molecule `Nc1nonc1-c1nc2cc(F)cc(F)c2n1Cc1ccncc1` [Example 136, 4-(5,7-difluoro-1-(pyridin-4-ylmethyl)-benzimidazol-2-yl)-1,2,5-oxadiazol-3-amine], the IC50 under setting [1] was < 100 nM. Still for that read-out and setting: the same measure for `Cc1nonc1-c1nc2c(F)ccc(F)c2n1Cc1cncnc1` [Example 84, 3-[4,7-difluoro-1-(pyrimidin-5-ylmethyl)benzimidazol-2-yl]-4-methyl-1,2,5-oxadiazole]: < 100 nM; for `Cc1snnc1-c1nc2cccc(F)c2n1Cc1cccnc1` (single isomer, unassigned) [Example 128, 4-[7-fluoro-1-(pyridin-3-ylmethyl)benzimidazol-2-yl]-5-methyl-1,2,3-thiadiazole]: < 100 nM. Same read-out and setting: the same measure for `COc1cc(Cn2c(-c3nonc3N)nc3c(F)cccc32)ccn1` (single isomer, unassigned) [Example 184, 4-(4-fluoro-1-((2-methoxypyridin-4-yl)methyl)-benzimidazol-2-yl)-1,2,5-oxadiazol-3-amine]: < 100 nM; for `Nc1nonc1-c1nc2c(F)cncc2n1Cc1cccnn1` (single isomer, unassigned) [Example 188, 4-(7-fluoro-3-(pyridazin-3-ylmethyl)-3H-imidazo[4,5-c]pyridin-2-yl)-1,2,5-oxadiazol-3-amine]: < 5000 nM; for `COc1cc(Cn2c(-c3nonc3N)nc3cccc(F)c32)ccn1` (single isomer, unassigned) [Example 183, 4-(7-fluoro-1-((2-methoxypyridin-4-yl)methyl)-benzimidazol-2-yl)-1,2,5-oxadiazol-3-amine]: < 100 nM. Turning to `Cc1nonc1-c1nc2c(F)cccc2n1Cc1ccc(Cl)nc1` [Example 39, 3-[1-[(6-chloropyridin-3-yl)methyl]-4-fluoro-benzimidazol-2-yl]-4-methyl-1,2,5-oxadiazole], the IC50 was < 200 nM.

As to `Cc1nsnc1-c1nc2c(F)cccc2n1Cc1cccnc1` (single isomer, unassigned) [Example 124, 3-[4-fluoro-1-(pyridin-3-ylmethyl)benzimidazol-2-yl]-4-methyl-1,2,5-thiadiazole], under setting [1], the IC50 was < 50 nM.

As for `Cc1nonc1-c1nc2cccnc2n1Cc1cccnn1` [Example 20, 3-methyl-4-[3-(pyridazin-3-ylmethyl)imidazo[4,5-b]pyridin-2-yl]-1,2,5-oxadiazole], the IC50 under setting [1] is < 1000 nM. On the same count and under the same terms, the same measure for `Cc1nonc1-c1nc2cc(F)cc(F)c2n1Cc1cccnn1` (single isomer, unassigned) [Example 146, 3-(5,7-difluoro-1-(pyridazin-3-ylmethyl)-benzimidazol-2-yl)-4-methyl-1,2,5-oxadiazole]: < 50 nM; for `CSc1ccc(Cn2c(-c3nonc3C)nc3ccccc32)cn1` [Example 181, 3-methyl-4-(1-((6-(methylthio)pyridin-3-yl)methyl)-benzimidazol-2-yl)-1,2,5-oxadiazole]: < 500 nM; for `COc1ccc(Cn2c(-c3nonc3N)nc3cccc(F)c32)cn1` [Example 10, 4-[7-fluoro-1-[(6-methoxypyridin-3-yl)methyl]benzimidazol-2-yl]-1,2,5-oxadiazol-3-amine]: < 100 nM. The same measure, in the same setting: the same measure for `Cc1ccc(Cn2c(-c3nonc3N)nc3cccc(F)c32)nn1` (single isomer, unassigned) [Example 168, 4-(7-fluoro-1-((6-methylpyridazin-3-yl)methyl)-benzimidazol-2-yl)-1,2,5-oxadiazol-3-amine]: < 50 nM; for `Cc1nsnc1-c1nc2cccc(F)c2n1Cc1cccnc1` (single isomer, unassigned) [Example 125, 3-[7-fluoro-1-(pyridin-3-ylmethyl)benzimidazol-2-yl]-4-methyl-1,2,5-thiadiazole]: < 50 nM. Still for that read-out and setting: the same measure for `Nc1nonc1-c1nc2ccc(F)cc2n1Cc1cncnc1` (single isomer, unassigned) [Example 4, 4-[6-fluoro-1-(pyrimidin-5-ylmethyl)benzimidazol-2-yl]-1,2,5-oxadiazol-3-amine]: < 50 nM; for `Cc1nonc1-c1nc2cccnc2n1Cc1cnc(C#N)nc1` [Example 165, 5-((2-(4-methyl-1,2,5-oxadiazol-3-yl)-3H-imidazo[4,5-b]pyridin-3-yl)methyl)pyrimidine-2-carbonitrile]: < 100 nM; for `Nc1nonc1-c1nc2cccc(F)c2n1Cc1ccncn1` (single isomer, unassigned) [Example 134, 4-(7-fluoro-1-(pyrimidin-4-ylmethyl)-benzimidazol-2-yl)-1,2,5-oxadiazol-3-amine]: < 50 nM.

Consider `Cc1nonc1-c1nc2c(F)c(F)ccc2n1Cc1cccnn1` (single isomer, unassigned) [Example 171, 3-(4,5-difluoro-1-(pyridazin-3-ylmethyl)-benzimidazol-2-yl)-4-methyl-1,2,5-oxadiazole], for which the IC50 under setting [1] was < 500 nM. Still for that read-out and setting: the same measure for `Cc1nonc1-c1nc2c(F)ccc(F)c2n1Cc1cnc(C#N)nc1` [Example 83, 5-[[4,7-difluoro-2-(4-methyl-1,2,5-oxadiazol-3-yl)benzimidazol-1-yl]methyl]pyrimidine-2-carbonitrile]: < 200 nM; for `Nc1nonc1-c1nc2cc(F)ccc2n1Cc1cccnc1` (single isomer, unassigned) [Example 119, 4-[5-fluoro-1-(pyridin-3-ylmethyl)benzimidazol-2-yl]-1,2,5-oxadiazol-3-amine]: < 50 nM; for `Nc1nonc1-c1nc2ccccc2n1Cc1ccc(C(F)(F)F)nc1` [Example 97, 4-[1-[[6-(trifluoromethyl)pyridin-3-yl]methyl]benzimidazol-2-yl]-1,2,5-oxadiazol-3-amine]: < 100 nM. The same measure, in the same setting: the same measure for `COc1ccc(Cn2c(-c3nonc3N)nc3cccc(F)c32)nn1` (single isomer, unassigned) [Example 152, 4-(7-fluoro-1-((6-methoxypyridazin-3-yl)methyl)-benzimidazol-2-yl)-1,2,5-oxadiazol-3-amine]: < 50 nM.
